In patent US20120083473A1, “TREATMENT OF CONDITIONS BY TOLL-LIKE RECEPTOR MODULATORS” (priority 2010, published 2012):
“Also recorded” adds a separate entry of the source.

Tests used:
Stability of the API = assay type: physicochemical; conditions: for stability of powder: preliminary
Description: Compound 2 powder underwent preliminary stability testing at 25° C. for 6 months and 40° C. for three months. […] Aqueous solutions of Compound 2 (2 mg/ml) are stable up to 4 weeks at 37° C.

[1] = tested on: rat collagen-induced arthritis (CIA) model; experiment: Rat collagen-induced arthritis (CIA) model; assay type: in vivo; conditions: for day of definite disease onset / bone erosion score / cumulative arthritis score / cartilage erosion score / joint inflammation score / proteoglycan loss score: mean±SD; for cartilage erosion score / joint inflammation score / proteoglycan loss score: scale 0-3
Description: Collagen-induced arthritis was induced in 9 weeks old female Lewis rats using a two-steps immunization protocol. On day 0, rats were immunized by intradermal injection of approximately 1 ml of 1 mg/ml bovine type II collagen (Chondrex) emulsified in Incomplete Freund's adjuvant (Difco Laboratories) at several sites at the back. Arthritis development was accelerated by an intradermal booster immunization in the back and tail-base with 100 µg bovine type II collagen (Chondrex) in IFA (Difco Laboratories) at day 7. For immunization, rats were anesthetized by inhalation of 3-4% isoflurane in a mixture of oxygen and nitrous oxide.
Rats were evaluated 6 times per week (once during weekends) for arthritis severity using a macroscopic scoring system of 0-4 for each paw as detailed below:
0=no signs of arthritis 0.5=unloading of the paw and/or light redness of ankle joint 1=redness and mild swelling of the ankle joint 2=redness and swelling of paw 3=severe redness and swelling of entire paw including digits 4=maximally swollen paw, often involvement of multiple joints and extending toward knee joint.
The total clinical score of an individual rat is defined as the sum of the clinical scores of all four paws for each day. At the end of the study, the cumulative arthritis score was calculated for each rat. This cumulative arthritis score is defined as the sum of the total clinical scores obtained from day 0 till day 24.
The day of disease is defined as the first day of three consecutive days on which a total clinical arthritis score of more than 0 was observed.
The swelling of the hind paws was measured during weekdays with a laser scan micrometer (Mitutoyo, LSM-503S/6200). At the end of the study, the cumulative paw swelling was calculated for each rat as follows: a baseline value was determined by averaging the paw thickness values of day 0-9 when no signs of arthritis were visible in the vehicle-treated group. Next, increase in paw thickness was calculated by subtracting the baseline value from the paw thickness values obtained on day 10-24 (delta value). Cumulative paw swelling is defined as the sum of the delta paw thickness values from day 10 till 24.
Left ankle joints were decalcified in a solution of 10% EDTA in distilled water, pH 7.4 for at least two months. After a wash in running tap water for 24 hours, the joints were embedded in paraffin and cut into 5 μm sections.
Joint inflammation was scored on Haematoxylin Phloxine Saffron (HPS) stained sections. The inflammation score is based on the amount of inflammatory cells infiltrated into the joint on a scale of 0-3:
0=no inflammation 1=inflammatory cells in muscle layer (surrounding tissue) 2=infiltration of inflammatory cells in the joint 3=severe infiltration of inflammatory cells in the joint
Cartilage erosion was also scored on HPS stained sections. Erosion was scored in three compartments between tarsal bones and the tibia bone as the disappearance of cartilage or chondrocyte death on a scale of 0-3:
0=no erosion 1=erosion in 1 joint compartment 2=erosion in 2 joint compartments 3=erosion in 3 joint compartments
Proteoglycan (PG) loss was scored on Saffranin 0/Fast green-stained sections on a scale of 0-3, indicating increasing loss of staining from the cartilage tissue:
0=no PG loss 1=1-33% loss of PG staining 2=34-66% loss of PG staining 3=67%-complete loss of PG staining
Bone erosion was scored on HPS stained sections. Erosion was scored at four different locations in two compartments as the number of osteoclasts per field (average value is given in Appendix 8): […]

SMILES: COCCOc1nc(N)c2nc(O)n(Cc3ccc(C(=O)NCCOCCOCCOCCOCCOCCOCCn4cc(CCC(=O)O)nn4)cc3)c2n1 [Compound 2]
- stability of powder (Stability of the API; 25° C. for 6 months): no degradation or impurity profile changes
- stability of powder (Stability of the API; 40° C. for three months): no degradation or impurity profile changes
- time aqueous solutions are stable (Stability of the API; aqueous solutions 2 mg/ml, 37° C.): up to 4 weeks
- day on which disease incidence of 100% was reached ([1]; 1.6 mg/kg): 11 days
- day of definite disease onset ([1]; 1.6 mg/kg i.p. once daily from day 10): 10.3 ± 0.5 days
- bone erosion score ([1]; 1.6 mg/kg): 0.63±0.17
- cumulative arthritis score ([1]; 1.6 mg/kg): 77.3±11.9 a.u.
- cartilage erosion score ([1]; 1.6 mg/kg): 2.09±0.65
- joint inflammation score ([1]; 1.6 mg/kg): 2.69±0.37
- proteoglycan loss score ([1]; 1.6 mg/kg): 2.41±0.40
- day on which disease incidence of 100% was reached ([1]; 3.2 mg/kg): 13 days
- day of definite disease onset ([1]; 3.2 mg/kg i.p. once daily from day 10): 10.4 ± 1.1 days
- bone erosion score ([1]; 3.2 mg/kg): 0.62±0.09
- cumulative arthritis score ([1]; 3.2 mg/kg): 83.3±12.2 a.u.
- cartilage erosion score ([1]; 3.2 mg/kg): 2.34±0.68
- joint inflammation score ([1]; 3.2 mg/kg): 2.66±0.33
- proteoglycan loss score ([1]; 3.2 mg/kg): 2.53±0.21
- day on which disease incidence of 100% was reached ([1]; 6.3 mg/kg): 11 days
- day of definite disease onset ([1]; 6.3 mg/kg i.p. once daily from day 10): 10.4 ± 0.5 days
- bone erosion score ([1]; 6.3 mg/kg): 0.69±0.13
- cumulative arthritis score ([1]; 6.3 mg/kg): 81.1±14.6 a.u.
- cartilage erosion score ([1]; 6.3 mg/kg): 2.06±0.65
- joint inflammation score ([1]; 6.3 mg/kg): 2.69±0.32
- proteoglycan loss score ([1]; 6.3 mg/kg): 2.47±0.34
- day on which disease incidence of 100% was reached ([1]; 12.6 mg/kg): 15 days
- day of definite disease onset ([1]; 12.6 mg/kg i.p. once daily from day 10): 11.5 ± 2.0 days
- total clinical arthritis score versus vehicle, end of the study ([1]; 12.6 mg/kg, day 22, 23 and 24 (p=0.036, p=0.017, p=0.044)): statistically exceeded that of the vehicle group
- joint inflammation score ([1]; 12.6 mg/kg, left ankle histology): 2.41±0.42
- cumulative arthritis score ([1]; 12.6 mg/kg, day 0 till day 24): 77.6±19.9 a.u.
- bone erosion score ([1]; 12.6 mg/kg, osteoclast score 0-3): 0.56±0.14
- cumulative hind paw swelling versus vehicle ([1]; 12.6 mg/kg, p=0.003 left, p=0.004 right hind paw): significantly reduced; also recorded: reduction
- proteoglycan loss versus vehicle ([1]; 12.6 mg/kg, p=0.026): significantly diminished; also recorded: significant suppression
- cartilage erosion score ([1]; 12.6 mg/kg): 1.81±0.91
- proteoglycan loss score ([1]; 12.6 mg/kg): 1.97±0.59
- clinical signs of arthritis / total clinical arthritis score versus vehicle, initial phase ([1]; 12.6 mg/kg, significant on day 13 and 16 (p=0.018, p=0.011)): initially suppressed
- development of clinical signs of arthritis over time ([1]; 6.3, 3.2 and 1.6 mg/kg groups): comparable to the vehicle group
- arthritis development compared to the vehicle group ([1]; 6.3, 3.2 or 1.6 mg/kg): did not significantly reduce
- paw thickness ([1]; Compound 2 12.6, 6.3, 3.2, 1.6 mg/kg): dose-dependent reduction
- disease incidence ([1]; all Compound 2 groups (12.6, 6.3, 3.2, 1.6 mg/kg), till the end of the study): 100%
- body weight ([1]; different concentrations Compound 2): decreased gradually after disease onset, which was similar to the vehicle group
- arthritis development ([1]; highest dose level (12.6 mg/kg), therapeutic i.p. from day 10): limited suppression
- hind paw swelling versus vehicle ([1]; other Compound 2 dose groups (6.3, 3.2, 1.6 mg/kg)): no significant differences
